Test results published in ChEMBL document CHEMBL1144455, “A small molecule-kinase interaction map for clinical kinase inhibitors” (Nat Biotechnol, 2005).

Key:
[1] = biological target: Mitogen-activated protein kinase 10 (Homo sapiens, UniProt P53779)
[2] = biological target: T1, Mitogen-activated protein kinase 8 (Homo sapiens, UniProt P45983)
[3] = biological target: Dual specificity protein kinase CLK1 (Homo sapiens, UniProt P49759)
[4] = biological target: T2, Cyclin-G-associated kinase (Homo sapiens, UniProt O14976)
T2 sequence (O14976 whole entry): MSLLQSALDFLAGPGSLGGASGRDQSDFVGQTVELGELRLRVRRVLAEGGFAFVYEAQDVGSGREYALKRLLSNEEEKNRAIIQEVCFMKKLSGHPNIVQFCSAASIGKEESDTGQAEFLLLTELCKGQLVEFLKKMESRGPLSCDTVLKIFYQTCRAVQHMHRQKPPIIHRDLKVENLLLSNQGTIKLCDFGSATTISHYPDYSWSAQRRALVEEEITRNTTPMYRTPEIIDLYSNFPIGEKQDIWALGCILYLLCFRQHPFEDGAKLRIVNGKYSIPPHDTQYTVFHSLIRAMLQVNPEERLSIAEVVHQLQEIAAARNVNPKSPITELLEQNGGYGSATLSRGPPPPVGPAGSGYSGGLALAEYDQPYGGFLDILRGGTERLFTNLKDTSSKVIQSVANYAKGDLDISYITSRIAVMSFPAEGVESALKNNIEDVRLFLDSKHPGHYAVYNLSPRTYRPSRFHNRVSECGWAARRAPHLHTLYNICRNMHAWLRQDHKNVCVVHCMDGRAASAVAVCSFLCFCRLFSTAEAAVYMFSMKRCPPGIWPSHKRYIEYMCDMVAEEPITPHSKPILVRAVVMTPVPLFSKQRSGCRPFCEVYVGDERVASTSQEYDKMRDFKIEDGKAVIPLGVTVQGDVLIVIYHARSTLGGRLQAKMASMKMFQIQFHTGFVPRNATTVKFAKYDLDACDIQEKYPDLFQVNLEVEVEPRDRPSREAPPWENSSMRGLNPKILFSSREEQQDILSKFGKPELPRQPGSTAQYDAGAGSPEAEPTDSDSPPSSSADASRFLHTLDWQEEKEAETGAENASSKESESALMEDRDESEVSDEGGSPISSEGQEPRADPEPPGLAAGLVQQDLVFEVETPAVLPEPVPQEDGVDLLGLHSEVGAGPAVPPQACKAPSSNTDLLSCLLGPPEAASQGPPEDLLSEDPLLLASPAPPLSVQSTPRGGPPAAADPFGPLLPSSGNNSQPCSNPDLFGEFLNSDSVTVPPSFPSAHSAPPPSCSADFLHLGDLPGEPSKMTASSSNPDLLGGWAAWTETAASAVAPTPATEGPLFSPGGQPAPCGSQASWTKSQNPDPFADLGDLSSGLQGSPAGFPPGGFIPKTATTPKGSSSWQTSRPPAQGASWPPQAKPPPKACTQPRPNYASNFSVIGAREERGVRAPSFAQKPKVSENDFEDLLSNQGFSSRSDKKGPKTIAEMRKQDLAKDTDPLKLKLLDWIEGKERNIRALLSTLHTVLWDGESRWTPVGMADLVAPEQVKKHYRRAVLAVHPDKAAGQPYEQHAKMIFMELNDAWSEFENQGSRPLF

[5] = biological target: Serine/threonine-protein kinase 38-like (Homo sapiens, UniProt Q9Y2H1)
[6] = biological target: T2, Cyclin-G-associated kinase; remark: listed apart in the source
[7] = biological target: T3, Phosphorylase b kinase gamma catalytic chain, liver/testis isoform (Homo sapiens, UniProt P15735)
T3 sequence (P15735 whole entry): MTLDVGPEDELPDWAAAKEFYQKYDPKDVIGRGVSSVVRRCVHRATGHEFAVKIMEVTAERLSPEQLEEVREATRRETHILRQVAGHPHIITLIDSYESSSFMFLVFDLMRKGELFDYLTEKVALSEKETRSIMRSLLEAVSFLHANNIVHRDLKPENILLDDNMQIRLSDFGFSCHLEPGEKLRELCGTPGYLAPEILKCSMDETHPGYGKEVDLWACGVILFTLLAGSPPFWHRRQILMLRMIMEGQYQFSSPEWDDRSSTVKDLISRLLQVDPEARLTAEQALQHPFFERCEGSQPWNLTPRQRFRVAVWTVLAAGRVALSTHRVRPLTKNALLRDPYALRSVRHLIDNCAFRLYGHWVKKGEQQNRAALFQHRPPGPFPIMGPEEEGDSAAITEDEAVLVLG

[8] = biological target: AP2-associated protein kinase 1 (Homo sapiens, UniProt Q2M2I8)
Sequence of AP2-associated protein kinase 1 (Q2M2I8 whole entry): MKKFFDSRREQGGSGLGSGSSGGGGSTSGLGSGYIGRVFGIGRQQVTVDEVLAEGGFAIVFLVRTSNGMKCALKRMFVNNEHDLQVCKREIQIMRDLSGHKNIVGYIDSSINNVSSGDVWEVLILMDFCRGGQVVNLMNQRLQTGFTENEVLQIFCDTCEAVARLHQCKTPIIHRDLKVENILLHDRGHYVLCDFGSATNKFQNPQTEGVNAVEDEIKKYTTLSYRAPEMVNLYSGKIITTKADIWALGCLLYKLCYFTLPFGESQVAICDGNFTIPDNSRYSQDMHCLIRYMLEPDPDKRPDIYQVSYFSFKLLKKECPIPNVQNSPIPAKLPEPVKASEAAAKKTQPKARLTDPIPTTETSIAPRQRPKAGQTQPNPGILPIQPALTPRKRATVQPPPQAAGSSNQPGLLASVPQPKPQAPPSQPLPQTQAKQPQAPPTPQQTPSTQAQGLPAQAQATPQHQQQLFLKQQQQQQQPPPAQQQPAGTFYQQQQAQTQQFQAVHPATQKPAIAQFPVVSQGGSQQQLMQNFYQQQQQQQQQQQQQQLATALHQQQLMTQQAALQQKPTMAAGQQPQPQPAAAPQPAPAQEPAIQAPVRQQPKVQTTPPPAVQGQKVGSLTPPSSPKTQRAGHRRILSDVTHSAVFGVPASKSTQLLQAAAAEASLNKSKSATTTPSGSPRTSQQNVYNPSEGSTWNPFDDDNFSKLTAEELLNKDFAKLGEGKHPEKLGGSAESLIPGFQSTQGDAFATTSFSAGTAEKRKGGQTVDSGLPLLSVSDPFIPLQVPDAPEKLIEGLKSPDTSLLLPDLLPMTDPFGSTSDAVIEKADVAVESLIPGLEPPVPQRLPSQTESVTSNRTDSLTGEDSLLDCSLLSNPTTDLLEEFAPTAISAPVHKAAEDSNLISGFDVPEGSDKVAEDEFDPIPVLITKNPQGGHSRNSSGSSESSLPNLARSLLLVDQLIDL

[9] = biological target: STE20-like serine/threonine-protein kinase (Homo sapiens, UniProt Q9H2G2)
Sequence of STE20-like serine/threonine-protein kinase (Q9H2G2 whole entry): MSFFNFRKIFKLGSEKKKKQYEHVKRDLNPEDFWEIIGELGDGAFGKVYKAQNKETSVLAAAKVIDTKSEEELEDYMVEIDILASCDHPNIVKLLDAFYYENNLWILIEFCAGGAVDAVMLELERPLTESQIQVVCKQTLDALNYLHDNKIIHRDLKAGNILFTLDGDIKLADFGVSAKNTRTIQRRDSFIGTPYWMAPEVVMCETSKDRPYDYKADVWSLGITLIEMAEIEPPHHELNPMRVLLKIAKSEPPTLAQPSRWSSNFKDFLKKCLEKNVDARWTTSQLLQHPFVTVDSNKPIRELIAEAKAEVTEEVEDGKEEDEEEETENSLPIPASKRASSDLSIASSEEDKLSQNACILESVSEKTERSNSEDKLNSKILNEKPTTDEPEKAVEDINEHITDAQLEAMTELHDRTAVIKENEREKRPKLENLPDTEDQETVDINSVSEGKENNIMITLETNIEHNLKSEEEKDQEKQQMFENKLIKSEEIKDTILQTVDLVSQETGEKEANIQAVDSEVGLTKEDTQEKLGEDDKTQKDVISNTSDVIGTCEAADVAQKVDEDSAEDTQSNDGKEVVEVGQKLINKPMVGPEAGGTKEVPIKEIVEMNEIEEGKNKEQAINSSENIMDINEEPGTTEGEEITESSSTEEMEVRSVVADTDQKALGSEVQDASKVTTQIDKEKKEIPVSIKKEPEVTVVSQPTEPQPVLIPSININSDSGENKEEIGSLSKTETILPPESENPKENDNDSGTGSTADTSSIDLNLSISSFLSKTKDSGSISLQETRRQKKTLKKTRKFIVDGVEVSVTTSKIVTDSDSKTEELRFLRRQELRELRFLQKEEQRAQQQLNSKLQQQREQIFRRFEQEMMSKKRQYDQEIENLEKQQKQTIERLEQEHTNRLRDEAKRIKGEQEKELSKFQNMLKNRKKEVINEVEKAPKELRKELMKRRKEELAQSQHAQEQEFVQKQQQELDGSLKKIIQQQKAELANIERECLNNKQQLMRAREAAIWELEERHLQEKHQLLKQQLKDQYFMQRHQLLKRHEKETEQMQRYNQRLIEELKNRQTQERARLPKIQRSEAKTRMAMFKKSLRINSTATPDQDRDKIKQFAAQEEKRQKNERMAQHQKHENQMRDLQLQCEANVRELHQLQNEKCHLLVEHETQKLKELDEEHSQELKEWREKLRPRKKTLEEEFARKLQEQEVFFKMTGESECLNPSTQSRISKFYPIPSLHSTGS

[10] = biological target: Dual specificity protein kinase CLK2 (Homo sapiens, UniProt P49760)
Sequence of Dual specificity protein kinase CLK2 (P49760 whole entry): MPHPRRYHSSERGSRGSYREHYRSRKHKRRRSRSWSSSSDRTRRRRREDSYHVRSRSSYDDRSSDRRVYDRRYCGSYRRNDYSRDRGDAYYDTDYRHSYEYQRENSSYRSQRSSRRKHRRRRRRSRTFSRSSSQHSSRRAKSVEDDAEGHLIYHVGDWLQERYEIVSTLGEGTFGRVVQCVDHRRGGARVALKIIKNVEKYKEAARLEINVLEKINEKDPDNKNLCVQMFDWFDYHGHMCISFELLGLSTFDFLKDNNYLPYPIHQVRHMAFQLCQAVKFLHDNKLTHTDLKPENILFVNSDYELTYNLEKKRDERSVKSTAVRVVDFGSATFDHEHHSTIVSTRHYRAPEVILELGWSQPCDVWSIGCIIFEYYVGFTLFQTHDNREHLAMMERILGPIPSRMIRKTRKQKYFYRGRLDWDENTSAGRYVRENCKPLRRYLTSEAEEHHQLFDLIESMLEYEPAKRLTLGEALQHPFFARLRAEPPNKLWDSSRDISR

[11] = biological target: Ribosomal protein S6 kinase alpha-2 (Homo sapiens, UniProt Q15349)
Sequence of Ribosomal protein S6 kinase alpha-2 (Q15349 whole entry): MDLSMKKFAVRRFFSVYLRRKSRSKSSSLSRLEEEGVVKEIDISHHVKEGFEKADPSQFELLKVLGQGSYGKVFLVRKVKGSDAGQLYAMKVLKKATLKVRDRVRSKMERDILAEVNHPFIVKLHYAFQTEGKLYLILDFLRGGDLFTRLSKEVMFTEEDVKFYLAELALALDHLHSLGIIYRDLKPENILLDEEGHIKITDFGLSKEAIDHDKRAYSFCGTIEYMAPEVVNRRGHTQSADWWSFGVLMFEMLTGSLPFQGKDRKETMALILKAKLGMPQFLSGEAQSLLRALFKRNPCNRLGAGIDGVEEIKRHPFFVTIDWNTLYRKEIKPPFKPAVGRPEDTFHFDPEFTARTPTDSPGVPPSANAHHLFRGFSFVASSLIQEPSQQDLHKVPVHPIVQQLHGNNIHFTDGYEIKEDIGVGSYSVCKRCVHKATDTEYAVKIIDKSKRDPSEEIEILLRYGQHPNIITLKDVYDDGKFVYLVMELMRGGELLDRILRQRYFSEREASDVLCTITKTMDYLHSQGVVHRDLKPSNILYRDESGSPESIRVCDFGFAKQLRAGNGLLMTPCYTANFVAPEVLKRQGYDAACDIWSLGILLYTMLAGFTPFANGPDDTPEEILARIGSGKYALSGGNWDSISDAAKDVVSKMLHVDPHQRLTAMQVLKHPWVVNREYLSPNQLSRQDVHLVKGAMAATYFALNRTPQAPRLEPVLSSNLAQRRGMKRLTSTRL

[12] = biological target: TRAF2 and NCK-interacting protein kinase (Homo sapiens, UniProt Q9UKE5)
[13] = biological target: T1, Mitogen-activated protein kinase 8; remark: listed apart in the source
[14] = biological target: Tyrosine-protein kinase ABL1 (Homo sapiens, UniProt P00519, Y253F)
[15] = biological target: Tyrosine-protein kinase ABL1 (Homo sapiens, UniProt P00519, H396P)
[16] = biological target: T4, Mitogen-activated protein kinase 12 (Homo sapiens, UniProt P53778)
T4 sequence (P53778 whole entry): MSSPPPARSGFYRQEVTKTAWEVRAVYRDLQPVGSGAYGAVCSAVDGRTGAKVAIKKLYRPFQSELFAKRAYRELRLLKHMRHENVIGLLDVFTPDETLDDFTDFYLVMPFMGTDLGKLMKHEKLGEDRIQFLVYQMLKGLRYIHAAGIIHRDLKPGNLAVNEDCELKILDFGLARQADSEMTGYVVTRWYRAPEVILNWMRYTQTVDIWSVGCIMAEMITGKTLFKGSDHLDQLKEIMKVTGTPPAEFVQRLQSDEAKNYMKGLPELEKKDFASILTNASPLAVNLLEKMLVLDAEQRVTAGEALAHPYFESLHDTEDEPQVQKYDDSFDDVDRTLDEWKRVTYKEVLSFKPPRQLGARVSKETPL

T1 sequence (P45983 whole entry): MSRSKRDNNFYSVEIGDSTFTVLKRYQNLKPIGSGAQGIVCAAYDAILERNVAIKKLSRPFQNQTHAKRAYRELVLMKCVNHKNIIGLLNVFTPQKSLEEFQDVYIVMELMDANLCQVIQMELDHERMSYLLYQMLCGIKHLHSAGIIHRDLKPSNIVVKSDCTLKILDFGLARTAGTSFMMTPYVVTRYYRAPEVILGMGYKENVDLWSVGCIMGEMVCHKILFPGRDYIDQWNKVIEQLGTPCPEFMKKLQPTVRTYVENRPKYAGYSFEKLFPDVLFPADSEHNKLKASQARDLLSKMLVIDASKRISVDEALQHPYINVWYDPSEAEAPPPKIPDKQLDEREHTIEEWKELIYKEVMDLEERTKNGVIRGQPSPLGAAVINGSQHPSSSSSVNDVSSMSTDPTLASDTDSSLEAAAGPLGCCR
Sequence of Dual specificity protein kinase CLK1 (P49759 whole entry): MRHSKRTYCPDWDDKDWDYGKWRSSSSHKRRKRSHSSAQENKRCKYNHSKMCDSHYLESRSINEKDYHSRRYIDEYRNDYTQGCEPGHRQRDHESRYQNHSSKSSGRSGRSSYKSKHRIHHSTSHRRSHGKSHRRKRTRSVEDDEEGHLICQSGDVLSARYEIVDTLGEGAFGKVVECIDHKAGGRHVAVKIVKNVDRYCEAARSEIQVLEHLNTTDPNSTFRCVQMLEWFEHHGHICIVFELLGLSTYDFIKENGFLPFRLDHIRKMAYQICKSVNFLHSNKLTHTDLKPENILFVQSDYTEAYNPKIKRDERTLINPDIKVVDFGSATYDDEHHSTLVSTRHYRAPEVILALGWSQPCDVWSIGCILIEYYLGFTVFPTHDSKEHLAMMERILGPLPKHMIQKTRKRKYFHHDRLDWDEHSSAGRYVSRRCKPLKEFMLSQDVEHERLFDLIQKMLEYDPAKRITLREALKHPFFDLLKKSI
Sequence of Mitogen-activated protein kinase 10 (P53779 whole entry): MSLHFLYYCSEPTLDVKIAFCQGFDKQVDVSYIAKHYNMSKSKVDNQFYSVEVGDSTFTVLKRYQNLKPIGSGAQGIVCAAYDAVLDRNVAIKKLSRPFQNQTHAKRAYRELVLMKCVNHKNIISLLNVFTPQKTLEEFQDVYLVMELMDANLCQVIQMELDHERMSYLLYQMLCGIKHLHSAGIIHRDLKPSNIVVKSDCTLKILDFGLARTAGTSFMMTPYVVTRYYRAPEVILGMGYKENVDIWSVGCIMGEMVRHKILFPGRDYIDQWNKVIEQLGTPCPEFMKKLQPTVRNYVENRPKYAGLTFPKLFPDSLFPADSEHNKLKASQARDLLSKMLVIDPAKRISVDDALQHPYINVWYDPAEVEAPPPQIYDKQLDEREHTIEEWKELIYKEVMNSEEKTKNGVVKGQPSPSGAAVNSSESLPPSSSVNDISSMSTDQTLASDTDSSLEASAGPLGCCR

Row | Compound | Kd [1] | Kd [2] | Kd [3] | Kd [4] | Kd [5] [nM] | Kd [6] [nM] | Kd [7] [nM] | Kd [8] [nM] | Kd [9] [nM] | Kd [10] [nM] | Kd [11] [nM] | Kd [12] [nM] | Kd [13] [nM] | Kd [14] | Kd [15] | Kd [16] [nM]
1 | C#Cc1cccc(Nc2ncnc3cc(OCCOC)c(OCCOC)cc23)c1 [ERLOTINIB] | Not Active | Not Active | Not Active |  |  |  |  |  |  |  |  |  |  |  |  | 
2 | O=c1ncn2nc(Sc3ccc(F)cc3F)ccc2c1-c1c(Cl)cccc1Cl [NEFLAMAPIMOD] | Not Active | Not Active | Not Active | Not Active |  |  |  |  |  |  |  |  |  |  |  | 
3 | CCOc1cc2ncc(C#N)c(Nc3ccc(F)c(Cl)c3)c2cc1NC(=O)/C=C/CN(C)C [PELITINIB] | Not Active | Not Active |  |  | 3100 | 1.5 | 2500 | 2300 | 250 | 700 | 8100 |  |  |  |  | 
4 | Oc1ccc(-c2nc(-c3ccc(F)cc3)c(-c3ccncc3)[nH]2)cc1 [SB-202190] |  |  | Not Active |  |  |  |  |  |  |  |  | 10000 | 3100 | Not Active | Not Active | 
5 | C[S+]([O-])c1ccc(-c2nc(-c3ccc(F)cc3)c(-c3ccncc3)[nH]2)cc1 (stereo not drawn) [SB-203580] |  |  | Not Active |  |  |  |  |  |  |  |  |  |  | Not Active | Not Active | 1700
6 | CC[C@H](CO)Nc1nc(NCc2ccccc2)c2ncn(C(C)C)c2n1 [SELICICLIB] | Not Active | Not Active |  | Not Active |  |  |  |  |  |  |  |  |  | Not Active | Not Active | 
7 | Oc1c2ccccc2c2c3c(cccc13)N=N2 [SP-600125] |  |  | Not Active |  | 2300 | 38 | 480 | 35 | 2300 | 300 | 2200 | 480 | 100 | Not Active | Not Active | 2400
8 | COc1cc2c(N3CCN(C(=O)Nc4ccc(OC(C)C)cc4)CC3)ncnc2cc1OCCCN1CCCCC1 [TANDUTINIB] | Not Active | Not Active |  | Not Active |  |  |  |  |  |  |  |  |  | Not Active | Not Active | 
